This is an account of results in patent US20170183306A1, “CYCLIC COMPOUNDS HAVING A 1,3 DIAMINO-FUNCTIONALITY FOR USE IN THE TREATMENT OF HIV INFECTION” (Universite Paris Descartes, priority 2014, published 2017).

In data set [1] the test system is Laï virus in MT2 cells (human lymphocytic cell line). The data set can be described thus: MT2 cells infected with Laï virus, real-time PCR of viral RNA of the supernatant. It counts as cell-based, HIV-1. As to conditions: for viral RNA of the supernatant, 10 μM / viral RNA of the supernatant, 25 μM / viral RNA of the supernatant, 50 μM / viral RNA of the supernatant, 100 μM: 3 days of culture, control = virus without any added compound; for viral replication in human lymphocytes (in words): summary of Table 3. The procedure:
In an experiment, MT2 cells (human lymphocytic cell line) are infected with the Laï virus to a multiplicity of infection of 0.3 and incubated with compounds A, B, C or D at four different concentrations.
After 3 days of culture, real-time PCR quantification of the viral RNA of the supernatant is performed (COBAS Ampliprep/COBAS TaqMan HIV-1 assay, version 2).
The results are expressed as percentage of control (virus without any added compound) in Table 3.
In general terms: Quantitative PCR measures a nucleic acid by following its amplification.

The test system of data set [2] is HIV. The settings on record: cited from earlier work.
In data set [3] the test system is wild type NL4-3 virus (HIV-1) in HeLa-p4 cells. As to the kind of experiment: HeLa-p4 single-cycle HIV-1 infectivity, beta-galactosidase CPRG test. The settings on record: Human immunodeficiency virus 1, NL43, HeLaP4, 48 hours after infection, control = NL4-3 virus alone; for activity at 50 µM: read-out: Hela-p4 CPRG 50 μM; for activity at 100 µM: read-out: Hela-p4 CPRG 100 μM. It counts as cell-based. The procedure, abridged: (§1)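 HeLa CD4 LTR-LacZ cells infected with 1 ng p24 of wild-type NL4-3 alongside graded compound concentrations; β-galactosidase measured 48 h post-infection by CPRG colorimetry, expressed as percent of untreated virus control. Viability assessed by MTS absorbance at […].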

Data set [4] relates to HeLa-p4 cells. As to the kind of experiment: Cell viability assay (MTS) on HeLa-p4 cells. It counts as cell-based. As to conditions: cell viability. The procedure, abridged:
as §1

The test system of data set [5] is J-Lat cells. As to the kind of experiment: J-Lat cells, percentage of GFP-positive cells by cytometry. It counts as cell-based. As to conditions: 24 h, compound alone. The procedure, abridged: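 J-Lat cells (5.105 per well, RPMI/10% FBS) treated 24 h with compound alone at 37 °C. After PFA fixation, GFP-positive cells counted by flow cytometry and reported as percentage of living fluorescent cells.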

The test system of data set [6] is HIV in T CD4+ cells from HIV-infected patients. As to the kind of experiment: HIV production by CD4+ T cells of HIV-infected, antiretroviral-treated, aviremic patients (real time PCR). As to conditions: one line per patient; for Compound: ratio of the viral load of interest/viral load of negative control: compound alone. It is filed as cell-based, HIV-1. From the text:
For experiments using primary cells obtained from HIV-infected, antiretroviral-treated, aviremic patients, total CD4+ cells are isolated by a MACS) Whole Blood MicroBead Technology (Miltenyi). Briefly, T CD4+ cells from whole blood are magnetically labeled with MACS MicroBeads and specific antibodies. Cells are separated in a MACS Column placed in a MACS Separator. The flow-through fraction can be collected as the negative fraction depleted of the labeled cells. The column is removed from the separator and the retained cells are eluted as the enriched, positively selected cell fraction. The T CD4+ cells were then cultured with a T cell activation/expansion kit (Miltenyi). The cells are activated for up to 3 days with Anti-Biotin MACSiBead Particle conjugated to monoclonal anti-biotin antibodies (anti CD2-biotin, […] and anti CD28-biotin). Expansion is achieved by adding IL-2 and fresh medium for 4 days. Then, these T CD4+ cells are considered as positive culture. A negative control was the same proportion of cells cultured without stimuli like antibodies and IL-2. The T CD4+ cells were cultured with compounds alone or in combination with antibodies or IL-2. The HIV production in cell culture media was measured by real time PCR (Cobas AmpliPrep/Cobas Taqman HIV-1 test, V2.0, Roche). The results are expressed in table 2 as a ratio of the viral load of interest/viral load of negative control or as a ratio of the viral load of interest/viral load of positive control.

For data set [7] the following is noted: cited from earlier work.

Like-named read-outs stand apart in the source and are kept apart here.

With `COc1ccc(CCN2C[C@H](N)C[C@H](N)C2)cc1OC` [Compound A], in data set [1], the “viral RNA of the supernatant, 10 μM” value is on record as 130 percentage of control; the “viral RNA of the supernatant, 25 μM” value is given as 60 percentage of control; the “viral RNA of the supernatant, 50 μM” value is recorded as 50 percentage of control; the “viral RNA of the supernatant, 100 μM” value is on record as 73200 percentage of control. Moreover, the “viral replication in human lymphocytes (in words)” value (“viral replication” for short) in data set [1] is “induce viral replication at an extremely high level”.
As to `COC(=O)C(Cc1ccccc1)N1C[C@H](N)C[C@H](N)C1` (stereo partly drawn) [Compound B], in data set [1], the “viral RNA of the supernatant, 10 μM” value is reported as 420 percentage of control; the “viral RNA of the supernatant, 25 μM” value is given as 40 percentage of control; the “viral RNA of the supernatant, 50 μM” value is reported as 70 percentage of control; the “viral RNA of the supernatant, 100 μM” value is given as 32400 percentage of control. Also, the “viral replication” value in data set [1] is listed as “induce viral replication at an extremely high level”.
For `N[C@@H]1C[C@H](N)CN(c2ccc(NC(=O)c3ccccc3)c(O)c2)C1` [Compound C], in data set [1], the “viral RNA of the supernatant, 10 μM” value was 21200 percentage of control; the “viral RNA of the supernatant, 25 μM” value is given as 83500 percentage of control; the “viral RNA of the supernatant, 50 μM” value is listed as 66400 percentage of control; the “viral RNA of the supernatant, 100 μM” value is on record as 931700 percentage of control. Besides, the “viral replication” value in data set [1] was “induce viral replication at an extremely high level”.
With `CCN(CC)C(=S)SSC(=S)N(CC)CC` [Disulfirame], the “capacity to induce HIV replication in clinical trial” value in data set [2] is reported as “low capacity to induce HIV replication”.
As to `N[C@@H]1CNC[C@H](N)C1` [ECO01-025-C2, piperidine-3,5-diamine], in data set [3], the activity at 50 µM is 166%, the activity at 100 µM was found to be 280% and the activity at 200 µM came out at 317%. Further, in data set [4], the “Hela-p4 MTS 50 μM” value turned out to be 104, the “Hela-p4 MTS 100 μM” value was 79 and the “Hela-p4 MTS 200 μM” value is reported as 70. For the same compound, the “J-lat 50 μM” value in data set [5] is 0.7 percentage of the living fluorescent cells. Moreover, the “Compound: ratio of the viral load of interest/viral load of negative control” value in data set [6] is 1.
With `CC(C)(C)OC(=O)N[C@@H]1CNC[C@H](NC(=O)OC(C)(C)C)C1` [ECO02-051-C], in data set [3], the activity at 50 µM was found to be 124%, the activity at 100 µM was determined as 200% and the activity at 200 µM came to 397%. In data set [4], the “Hela-p4 MTS 50 μM” value worked out at 95, the “Hela-p4 MTS 100 μM” value is reported as 96 and the “Hela-p4 MTS 200 μM” value is listed as 77. Further, the “J-lat 50 μM” value in data set [5] is on record as 1.1 percentage of the living fluorescent cells. In addition, the “Compound: ratio of the viral load of interest/viral load of negative control” value in data set [6] is given as 1. For the same compound, the “Compound + IL2: ratio of the viral load of interest/viral load of negative control” value in data set [6] (compound in combination with IL2) turned out to be 1.
As to `COc1cccc(CCN2C[C@H](NC(=O)OC(C)(C)C)C[C@H](NC(=O)OC(C)(C)C)C2)c1` [ECO03-03-C, di-tert-butyl (1-(3-methoxyphenethyl)piperidine-3,5-diyl)dicarbamate], in data set [3], the activity at 50 µM worked out at 148%, the activity at 100 µM was 341% and the activity at 200 µM was 440%. In data set [4], the “Hela-p4 MTS 50 μM” value was 105, the “Hela-p4 MTS 100 μM” value is reported as 104 and the “Hela-p4 MTS 200 μM” value is recorded as 104. The “J-lat 50 μM” value in data set [5] is 0.4 percentage of the living fluorescent cells.
Regarding `Cc1[nH]c2ccccc2c1CCNCc1ccc(/C=C/C(=O)NO)cc1` [LBH589], the “adverse effects in clinical trials” value in data set [7] (in vivo) is “important adverse effects”.
On to `COc1ccc(CN2C[C@H](N)C[C@H](N)C2)cc1OC` [PDA25, 1-(3,4-dimethoxybenzyl)piperidine-3,5-diamine], for which, in data set [3], the activity at 50 µM was 183%, the activity at 100 µM came out at 184% and the activity at 200 µM was 227%. Besides, in data set [4], the “Hela-p4 MTS 50 μM” value stood at 97, the “Hela-p4 MTS 100 μM” value came to 93 and the “Hela-p4 MTS 200 μM” value was found to be 58. Further, in data set [5], the “J-lat 50 μM” value is reported as 0 percentage of the living fluorescent cells and the “J-lat 100 μM” value is 0.2 percentage of the living fluorescent cells.
`N[C@H]1CC(OCc2cn(CC(=O)c3cc4ccc3CCc3ccc(cc3)CC4)nn2)[C@@H](N)C1` (stereo partly drawn) [RA 20]: in data set [3], the activity at 50 µM was 167% and the activity at 100 µM stood at 188%. In data set [4], the “Hela-p4 MTS 50 μM” value was 108 and the “Hela-p4 MTS 100 μM” value came to 97. Also, in data set [5], the “J-lat 50 μM” value is reported as 0.1 percentage of the living fluorescent cells and the “J-lat 100 μM” value is reported as 1.1 percentage of the living fluorescent cells.
As for `C/C=C1\NC(=O)[C@H]2CSSCC/C=C/[C@H](CC(=O)N[C@H](C(C)C)C(=O)N2)OC(=O)[C@H](C(C)C)NC1=O` [Romidepsin], the “adverse effects in clinical trials” value in data set [7] (in vivo) is “important adverse effects”.
With `O=C(CCCCCCC(=O)Nc1ccccc1)NO` [vorinostat], the “adverse effects in clinical trials” value in data set [7] (first results of on-going clinical trials) is listed as “important adverse effects”.
